Assay results from paper PMC8662641, “Site-Specific Labeling of Endogenous Proteins Using CoLDR Chemistry” (Journal of the American Chemical Society, 2021).
Values joined by “and” are separate entries in the source; they are usually repeats but may differ in a detail not shown here. Identical values can stand only once.

Tests used:
BTK-1h = molecular target: T1, BTK-1h (Homo sapiens, UniProt Q06187); assay: High-throughput screening with 1h-labeled BTK; type: binding; details: Dataset S2A; 200 μM compound, BTK-1h, 32 °C, 10 min
T1 construct: The BTK kinase domain was diluted to 2 μM in the buffer, and 2 μM 1h was added; made in house
Procedure: The collection was composed of BTK binding compounds obtained in our previous luminescence screen[37] (Data set S2). […] The resulting BTK-1h (50 μL) was added to the inhibitors.

BTK = BTK (Homo sapiens, UniProt Q06187); design: BTK kinase domain was expressed and purified as previously reported; made in house; method as in Reddi et al., J. Am. Chem. Soc. 2021, 143 (13), 4979–4992; details: ref Reddi et al., J. Am. Chem. Soc. 2021, 143 (13), 4979–4992; cited from earlier work
Chain of BTK (Q06187 402-655 limits assumed): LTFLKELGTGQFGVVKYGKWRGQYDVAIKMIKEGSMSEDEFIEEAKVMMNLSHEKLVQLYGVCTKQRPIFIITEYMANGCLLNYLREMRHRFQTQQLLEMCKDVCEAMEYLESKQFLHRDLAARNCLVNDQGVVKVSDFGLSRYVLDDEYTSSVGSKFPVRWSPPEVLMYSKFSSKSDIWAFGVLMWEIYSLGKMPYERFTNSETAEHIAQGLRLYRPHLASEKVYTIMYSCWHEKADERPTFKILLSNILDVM

T1 sequence (Q06187 402-655): as the sequence (Q06187 402-655 limits assumed) above

SMILES	FI (650)/FI (620) (BTK-1h)	FI (BTK-1h)/FI (BTK-1h+Inhibitor) at 620 nm (BTK-1h)	BTK Inhibition reported in luminescence assay* (BTK)
CC(C)=CCC/C(C)=C/Cc1c(O)c(CC=C(C)C)c2c(c1O)C(=O)C1=C[C@@H]3C[C@H]4C(C)(C)O[C@@](C/C=C(/C)C(=O)O)(C3=O)[C@@]14O2 [PCM-0216347-001]	1.074	1.011	100.4
CCOC(=O)c1ccc(NC(=O)O[C@H]2[C@H](OC(=O)Nc3ccc4c(c3)OCO4)[C@@H](OC(=O)Nc3ccc4c(c3)OCO4)[C@@H](OC)O[C@@H]2CO)cc1 [PCM-0215463-001]	0.9726	1.02	98.1
O=C(Nc1cccc2c(=O)cc(-c3nn[nH]n3)oc12)c1ccc(OCCCCc2ccccc2)cc1 [PCM-0095155-002]	1.503	1.506	73.8
O=C(/C=C/c1ccc(O)c(O)c1)c1ccc(O)cc1O [PCM-0095622-002]	1.0597	1.03	55.2
COS(=O)(=O)[O-].C[n+]1c2ccccc2nc2ccccc21 [PCM-0216061-001]	1.059	1.045	64.9
C=CC(=O)Nc1cccc(Nc2nc(Nc3ccc(OCCOC)cc3)ncc2F)c1 [PCM-0095787-002]	1.569	1.288	90.3
CN(Cc1ccc(C(C)(C)C)cc1)Cc1cccc2ccccc12.Cl [PCM-0086068-001]	0.9972	1.029	62.3
CC/C(=C(/c1ccc(/C=C/C(=O)O)cc1)c1ccc2[nH]ncc2c1)c1ccc(F)cc1Cl [PCM-0216010-001]	1.58	1.142	81.1
CN1CCN(Cc2ccc(-c3cnc4[nH]cc(-c5ccc6[nH]ccc6c5)c4c3)cc2)CC1 [PCM-0215377-001]	1.4774	1.04	111
CC(=O)O[C@@H]1CC[C@@]2(C)[C@@H](CC[C@]3(C)[C@@H]2C(=O)C=C2[C@@H]4[C@@H](C)[C@H](C)CC[C@]4(C)CC[C@]23C)[C@@]1(C)C(=O)O [PCM-0216599-001]	0.9109	1.037	88
CCS(=O)(=O)N1CCN(c2ccc(Nc3ncc(C(N)=O)c(NC4CC4)n3)cc2)CC1.Cl [PCM-0215389-001]	1.233	1.12	85.5
CN1CCN(Cc2ccc(NC(=O)Nc3ccc(Oc4cc(NC(=O)C5CC5)ncn4)cc3)cc2C(F)(F)F)CC1 [PCM-0215388-001]	1.014	1.145	79.5
COCCOC(=O)C1=C(C)NC(C)=C(C(=O)OC/C=C/c2ccccc2)C1c1cccc([N+](=O)[O-])c1 (stereo not drawn) [PCM-0065102-001]	0.8604	1.035	59.9
CC(C)=CCc1cc2c(cc1O)O[C@H](c1ccc(O)cc1)CC2=O [PCM-0216180-001]	1.0081	1.015	54.1
Cl.O=C1Cc2cc(CCN3CCN(c4nsc5ccccc45)CC3)c(Cl)cc2N1 [PCM-0065598-003]	1.0625	1.055	52.1
CC1=C(O)C(=O)C=C2C1=CC=C1[C@@]2(C)CC[C@@]2(C)[C@@H]3C[C@](C)(C(=O)O)CC[C@]3(C)CC[C@]12C [PCM-0214611-001]	0.9422	1.014	67.7
C=CC(=O)Nc1cccc(Oc2nc(Nc3ccc(N4CCN(C)CC4)cc3)ncc2Cl)c1 [PCM-0095023-002]	1.149	1.02	91.7
O=[N+]([O-])c1ccc(Nc2ccccc2-c2ccccc2)c2nonc12 [PCM-0215806-001]	1.017	1.01	74.1
O=C(NC(NC(=S)Nc1ccc(F)c([N+](=O)[O-])c1)C(Cl)(Cl)Cl)C(c1ccccc1)c1ccccc1 (stereo not drawn) [PCM-0215199-001]	0.9898	1.025	105.5
COc1ccc(-c2nc(-c3cc(C(F)(F)F)cc(C(F)(F)F)c3)n(Cc3ccc(C(N)=O)cc3)c2-c2ccc(OC)cc2)cc1 [PCM-0215748-001]	0.9815	1.0289	57.1

SMILES	FI (650)/FI (620) (BTK-1h)	FI (BTK-1h)/FI (BTK-1h+Inhibitor) at 620 nm (BTK-1h)	BTK Inhibition reported in luminescence assay* (BTK)
COC(=O)C1=C(C)NC(C)=C(C(=O)O[C@@H]2CCCN(Cc3ccccc3)C2)[C@@H]1c1cccc([N+](=O)[O-])c1.Cl [PCM-0214706-001]	1.754	1.03	80.9
COC1=CC(=O)c2ccccc2C1=O [PCM-0214886-001]	0.9979	1.038	85.6
CC(C)(O)CC(=O)NCCn1ccc2ncnc(Nc3ccc(Oc4cccc(C(F)(F)F)c4)c(Cl)c3)c21 [PCM-0095364-002]	0.8854	1.06	73.8
Cc1cc(Nc2nc(N[C@@H](C)c3ccc(F)cc3)c(C#N)cc2F)n[nH]1 [PCM-0095250-002]	1.215	1.03	99.3
COc1ccc(CC(=O)Nc2nc3c(s2)CCc2ccccc2-3)cc1OC [PCM-0215753-001]	0.9809	1.022	55.9
Nc1ccc(O)cc1 [PCM-0216110-001]	1.311	1.005	82.6
O=C(O)CSc1cc(NS(=O)(=O)c2ccc(Br)cc2)c2ccccc2c1O [PCM-0215378-001]	1.912	0.9002	51.7
O=C(Nc1ccc(OC(F)(F)F)cc1)c1sccc1NCc1ccnc2ccccc12 [PCM-0094951-002]	1.167	1.045	90.3
C=CC(=O)Nc1cccc(Oc2nc(Nc3ccc(N4CCN(C)CC4)cc3OC)ncc2Cl)c1 [PCM-0095043-002]	0.9704	1.038	89
Cc1ccc(-n2[nH]c(C)c(N=Nc3cccc(-c4cccc(C(=O)O)c4)c3O)c2=O)cc1C [PCM-0214811-001]	1.073 and 1.008	1.009 and 1.024	80.2
Cc1c(C(=O)Nc2ccc(Oc3ccnc4[nH]cc(-c5ccccc5)c34)c(F)c2)c(=O)n(-c2ccc(F)cc2)n1C [PCM-0215493-001]	1.1367	1.0338	95.9
COc1cccc(-n2c(=O)[nH]c3cc(Cl)n(-c4ccc(-c5cccc(OC)c5O)cc4)c3c2=O)c1 [PCM-0215555-001]	1.019	1.0396	99.3
O=C(c1ccccc1O)c1[nH]c(Cl)c(Cl)c1-n1c(C(=O)c2ccccc2O)cc(Cl)c1Cl [PCM-0215850-001]	1.151	1.016	117.4
CC1=C(C(=O)OC(C)C)C(c2cccc([N+](=O)[O-])c2)C(C(=O)OC2CN(C(c3ccccc3)c3ccccc3)C2)=C(N)N1 (stereo not drawn) [PCM-0095544-002]	1.1262	1.0184	70
COc1cc2c(Nc3ccc(NC(=O)c4ccccc4)cc3)ncnc2cc1OCCCN1CCOCC1 [PCM-0094881-002]	1.089	1.079	77.9
COc1ccc2c(O[C@@H]3C[C@H]4C(=O)N[C@]5(C(=O)NS(=O)(=O)C6CC6)C[C@H]5/C=C\CCCCN(C)C(=O)[C@@H]4C3)cc(-c3nc(C(C)C)cs3)nc2c1C [PCM-0215097-001]	0.9923	1.053	55.6
CC(O)C(=O)O.CN1CCN(c2ccc3nc(-c4c(N)c5c(F)cccc5[nH]c4=O)[nH]c3c2)CC1.O [PCM-0094915-004]	1.048 and 1.073	1.015 and 1.028	53.8
Cc1cnc(Nc2ccc(F)cc2Cl)nc1-c1c[nH]c(C(=O)N[C@H](CO)c2cccc(Cl)c2)c1 [PCM-0213398-002]	1.007	1.033	60
O=C1NC(=O)C(c2cnc3ccccn23)=C1c1cn2c3c(cc(F)cc13)CN(C(=O)N1CCCCC1)CC2 [PCM-0215438-001]	0.9847	1.0465	80
